Two compounds from PubChem BioAssay (NCI) can be followed below.

The term TGI denotes the concentration at which net growth stops. A higher TGI goes with lower sensitivity of the cells.

Test systems include A498 renal; A549 NSCLC; CCRF-CEM leukemia; DMS 114 small cell lung; HL-60(TB) leukemia; HT29 colon; IGROV1 ovarian; KM20L2 colon; MOLT-4 leukemia; NCI-H460 lung; NCI-H522 lung; RXF 393 renal; SF-268 CNS; SF-539 CNS; SK-MEL-2 melanoma; SK-MEL-5 melanoma; SN12C renal; SW-620 colon; UACC-257 melanoma; UO-31 renal.
Common to all, as to experiment: DTP human tumour cell line panel, 48 h

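Cells were grown in 96-well plates and exposed to each compound for 48 hours at five concentrations; endpoints were interpolated linearly between bracketing concentrations, or set to the highest concentration if not reached. TGI: concentration producing complete growth inhibition.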 Some results are limits rather than exact numbers.

Take `O=C(O)c1ccc(Nc2c3ccccc3nc3ccccc23)cc1`: the concentration for total growth inhibition (TGI) in the assay on A498 renal, with A549 NSCLC, in the assay on CCRF-CEM leukemia, with DMS 114 small cell lung, in the assay on HL-60(TB) leukemia and in the assay with HT29 colon was above 100 µM throughout. For the same compound, the TGI was above 100 µM in the assay with IGROV1 ovarian; above 100 µM with KM20L2 colon; above 83.9 µM in the assay on MOLT-4 leukemia; above 100 µM with NCI-H460 lung; above 100 µM in the assay on NCI-H522 lung; above 100 µM with RXF 393 renal. Further, the TGI in the assay with SF-268 CNS, in the assay with SF-539 CNS, in the assay with SK-MEL-2 melanoma, in the assay with SK-MEL-5 melanoma, with SN12C renal and with SW-620 colon was above 100 µM each time. Moreover, the TGI in the assay on UACC-257 melanoma and with UO-31 renal was above 100 µM throughout.
Take `O=C1C(Cl)N(c2ccc(Cl)cc2)C1c1c[nH]c2ccccc12` (centres undefined): the TGI is above 100 µM with A549 NSCLC; above 100 µM with CCRF-CEM leukemia; 45.2 µM in the assay on DMS 114 small cell lung; 44.5 µM with HL-60(TB) leukemia; 37.5 µM in the assay on HT29 colon; 62.6 µM in the assay with IGROV1 ovarian. In addition, the TGI is 38.3 µM with KM20L2 colon; 70 µM in the assay with MOLT-4 leukemia; 30.1 µM with NCI-H460 lung; 39 µM in the assay with NCI-H522 lung; 42.1 µM in the assay with RXF 393 renal; above 100 µM with SF-268 CNS. Further, the TGI in the assay on SF-539 CNS is 37.2 µM; in the assay with SK-MEL-2 melanoma, 29.3 µM; in the assay with SK-MEL-5 melanoma, 31 µM; with SN12C renal it was 36 µM; with SW-620 colon, 68.8 µM; in the assay with UACC-257 melanoma, 31.6 µM. The compound further showed a TGI in the assay with UO-31 renal of 35 µM.
